≈ marks a conversion by molar mass, not a printed value.
How the values were obtained:
[1] = Solubility after one hour stirring at RT as a function of glucose or icodextrin concentration in salt solution at pH 3 or pH 7 (Example 1); assay type: physicochemical; conditions: 0% glucose or icodextrin
Protocol: Concentrations of stilbenoid in the present invention are measured after 1 hour stirring at room temperature, which is preferably 20-23° C., more preferably 22°. So, stilbenoid concentrations correspond to measured solubility after 1 hour stirring at room temperature. Concentration is measured in aqueous solution, comprising the stilbenoid and the at least one saccharide. If not specifically indicated, or if not specifically indicated otherwise, the time of stirring is one hour. In some cases, other stirring times are indicated, such as 12 hours. […] With increasing concentrations of saccharides, less variations were observed. This is highly beneficial for pharmacological formulations. For analysis R and P and their impurities were separated by a C-18 column with a gradient system and UV-detection at 306 nm. Solubility and stability of Resveratrol and […] after one hour stirring at RT, as a function of glucose or icodextrin concentration in a solution, containing 5.4 g/L NaCl, 4.5 g/L NaLactate, 0.275 g/L CaCl2, and 0.051 g/L MgCl2, buffered at pH 3 or pH 7. Solubility was measured after one hour stirring at room temperature, in presence of excess solute, followed by filtering.

[2] = Stability after one hour stirring at RT as a function of glucose or icodextrin concentration in salt solution at pH 3 or pH 7 (Example 1); assay type: physicochemical; conditions: pH of 3 to 3.5
Protocol: For analysis R and P and their impurities were separated by a C-18 column with a gradient system and UV-detection at 306 nm. Solubility and stability of Resveratrol and […] after one hour stirring at RT, as a function of glucose or icodextrin concentration in a solution, containing 5.4 g/L NaCl, 4.5 g/L NaLactate, 0.275 g/L CaCl2, and 0.051 g/L MgCl2, buffered at pH 3 or pH 7. Solubility was measured after one hour stirring at room temperature, in presence of excess solute, followed by filtering.

[3] = Solubility in commercial peritoneal dialysis solutions (Medium B, E, F), 5 minutes to 12 hours stirring (Example 2); assay type: physicochemical; conditions: for P in Medium B found: Medium B (106.5 g/L anhydrous glucose, pH 3.5); for P in Medium B found / P in Medium E found / P in Medium F found: room temperature; for P in Medium E found: Medium E (75 g/L Icodextrin, pH 3); for P in Medium F found: Medium F (30 g/L anhydrous glucose, pH 3)
Protocol: (§1) Solubility studies were carried out commercially available peritoneal dialysis solutions Fresenius Safestay® 1.5% glucose, Baxter Physioneal® 3.86% glucose and Baxter Extraneal® (7.5% icodextrin), precisely in acidic glucose solutions, such as applied in two compartiment peritoneal dialysis applications Stay Safe® and Physioneal®, as well as in Extraneal® Solution that had previously been acidified to pH3. Medium B (117.14 g/L glucose monohydrate (equivalent to 106.5 g/L anhydrous glucose), 0.507 g/L Calcium chloride dihydrate, 0.140 g/L Magnesium chloride hexahydrate, measured pH 3.5), Medium E (75 g/L Icodextrin, 5.35 g/L Sodium Chloride, 4.48 g/L Sodium Lactate, 257 mg/L Calcium Chloride USP, 50.8 mg/L Magnesium Chloride USP, adjusted to pH 3 in our lab), and Medium F (30 g/L anhydrous glucose, 11.279 g/L Sodium chloride, 0.3675 g/L Calcium chloride dihydrate, 0.2033 g/L Magnesium chloride hexahydrate, measured pH 3).
Solubility was measured after 5 minutes to 12 hours stirring at room temperature, in presence of excess solute, followed by filtering.
Solubility was measured after one hour or 12 hours stirring at room temperature, in presence of excess solute, followed by filtering.

[4] = Stability of Resveratrol in commercial dialysis solutions during autoclavation (Example 4); assay type: physicochemical
Protocol: For analysis R and P and their impurities were separated by a C-18 column with a gradient system and UV-detection at 306 nm.
as §1
Stability of Resveratrol in commercial dialysis solutions during autoclavation. Experiment was carried out in previous defined media B, E and F. 25 mg of resveratrol were sonicated in each medium and 0.45 μm filtered to give clear solutions. Obtained solutions were autoclaved for 30 min at 121° C.

[5] = Solubility after one hour stirring at RT as a function of saccharide concentration in H2O (Examples 5-9); assay type: physicochemical; conditions: 24% N-acetylglucosamin in H2O, 1 hour stirring RT
Protocol: (§2) Solubility measurements after 1 hour stirring at RT generated some variability in-between measurement series, which might be due to low temperature variations, back-ground measurements and experimental imprecisions. […] The here calculated factors of increase of solubility are therefore to be considered as conservative.
Solubility of Resveratrol after one hour stirring at RT, as a function of the concentration of Maltose, Maltotriose, Isomaltotriose, and Maltotetraose in H2O. Solubility was measured after one hour stirring at room temperature, in presence of excess solute, followed by filtering. […] Concentration of Maltose and maltotriose of 7.5% increased solubility of the stilbenoid resveratrol by a factor higher than 6 and 3 respectively.
Solubility of Resveratrol after one hour stirring at RT, as a function of the concentration of Maltodextrin DE 16-19 (DE═dextrose equivalents), Maltodextrin DE 4-7 or Icodextrin in H2O. Solubility was measured after one hour stirring at room temperature, in presence of excess solute, followed by filtering.
Solubility of Resveratrol after one hour stirring at RT, as a function of the concentration of Dextran 2.5-4 kD, Dextran 10 kD, Glycogen 100 kD, and Pullulan 100-200 kD, in H2O. Solubility was measured after one hour stirring at room temperature, in presence of excess solute, followed by filtering. […]

[6] = Solubility of resveratrol in water / aqueous solution after stirring at room temperature (general statements); assay type: physicochemical
Protocol: Concentrations of stilbenoid in the present invention are measured after 1 hour stirring at room temperature, which is preferably 20-23° C., more preferably 22°. So, stilbenoid concentrations correspond to measured solubility after 1 hour stirring at room temperature. Concentration is measured in aqueous solution, comprising the stilbenoid and the at least one saccharide. If not specifically indicated, or if not specifically indicated otherwise, the time of stirring is one hour. In some cases, other stirring times are indicated, such as 12 hours. […] With increasing concentrations of saccharides, less variations were observed. This is highly beneficial for pharmacological formulations.
as §2

[7] = cited from earlier work

Structure (SMILES)	effect of pH3 versus pH7 on solubility [1]	stabilization by pH [2]	P in Medium B found ([3]; stirring time 60 min) [mg/L]	P in Medium B found ([3]; stirring time 12 h) [mg/L]	P in Medium E found ([3]; stirring time 60 min) [mg/L]	P in Medium E found ([3]; stirring time 12 h) [mg/L]	P in Medium F found ([3]; stirring time 60 min) [mg/L]	P in Medium F found ([3]; stirring time 12 h) [mg/L]	stability of solubilized piceid over stirring time ([3]; commercial dialysis solutions, between 1 and 12 hours stirring)	solubility relative to referred absolute solubility (approximately 30 mg/L) ([3]; 7.5% Icodextrin (Medium E), 12 hours stirring)	stability on heat sterilization ([4]; pH 3 adjusted Extraneal solution, heat sterilization)	stability during standard heat-sterilization ([4]; saccharide containing dialysis solutions at pH3, specifically in presence of 7.5% Icodextrin)	increase of concentration [5] [times]	solubility at 1 h ([6]; 22 °C, thermodynamic from solid, after 1 hour stirring, distilled water, variation between measurements) [µg/mL]	concentration of resveratrol after 12 hours ([6]; 12 hours stirring)	referred absolute solubility of Resveratrol in aqueous solution [7]
OC[C@H]1O[C@@H](Oc2cc(O)cc(/C=C/c3ccc(O)cc3)c2)[C@H](O)[C@@H](O)[C@@H]1O [Piceid, resveratrol-3-O-β-mono-D-glucoside]	slightly increases solubility	significantly stabilize	485.6	342.9	1585.5	1370.3	493.8	461.4	stable between 1 and 12 hours	–	–	–	–	–	–	–
Oc1ccc(/C=C/c2cc(O)cc(O)c2)cc1 [Resveratrol, trans-3,5,4′-trihydroxystilbene]	slightly increases solubility	significantly stabilize	–	–	–	–	–	–	–	about 4 times	without degradation	remarkably high	12	1 to 6.5 (≈ 4.38 to 28.5 µM)	above 24 mg/L	approximately 30 mg/L

Reference: patent publication US11185514B2, “Aqueous solution comprising a polyphenol” (OPTERION Health AG, priority 2015, dated 2021)
